In ChEMBL document CHEMBL1201862, “PubChem BioAssay data set” (2004):
The source made the active and inactive calls.

Assays:
[1] = molecular target: Transthyretin (Homo sapiens, UniProt P02766); experiment: Luminescence-based cell-based high throughput dose response assay to identify activators of Transthyretin (TTR) transcription.; type: functional
[2] = cells; type: functional, cell-based
[3] = IGROV1 ovarian cancer cell cytotoxicity, dose response, PAX8 inhibitor project, plate reader, dry powder samples (AID 743043); type: functional, cell-based; conditions: IGROV-1
[4] = cytotoxicity in COV362 ovarian cancer cells, dose response, cytotoxicity control for PAX8 inhibitor project, cell-based, plate reader, dry powder, SA12 (AID 743144); type: functional
[5] = cytotoxicity in COV434 cells, dose response, cytotoxicity control for PAX8 inhibitor project, cell-based, plate reader, dry powder, SA7 (AID 743145); type: functional
[6] = cytotoxicity in HEK-293T cells, dose response, cytotoxicity control for TCR NF-kB inhibitor project, luminescence, T-cell screen hits (AID 489026); type: functional, cell-based;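 also: cells exposed to compound about 14 hours before the viability readout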
[7] = molecular target: Paired box protein Pax-8 (Homo sapiens, UniProt Q06710); experiment: inhibitors of PAX8-driven TPO luciferase reporter, dose response, RMG-I cells, cherry-pick (AID 687027); type: functional, cell-based;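 also: luciferase reporter driven by Pax8 target thyroperoxidase promoter measured by SteadyGlo luminescence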
[8] = inhibitors of SNCA 5'UTR-driven reporter translation, confirmation, H4 neuroglioma cells, luminescence (AID 1988); type: functional, cell-based
[9] = PAX2 cell-based inhibition, dose response, selectivity assay for PAX8 inhibitor project, plate reader, dry powder samples (AID 743048); type: functional;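 also: HEK293 cells carrying a WT1 promoter luciferase reporter driven by expressed Pax2; potency is for inhibition of Pax2 driven reporter signal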
[10] = inhibitors of firefly luciferase expression or activity, dose response, H4 neuroglioma cells, luminescence (AID 1990); type: functional, cell-based
[11] = inhibitors of SNCA 5'UTR-driven translation, confirmation, luminescence, H4 neuroglioblastoma cells, dose confirmation (AID 2454); type: functional, cell-based;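 also: H4 neuroglioblastoma cells carrying an alpha-synuclein 5'UTR luciferase reporter; potency for inhibition of the luciferase signal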
[12] = PAX5 activity inhibitors, dose response, selectivity assay for PAX8 inhibitor project, cell-based, plate reader, dry powder samples (AID 743047); type: functional;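 also: HEK293 cells carrying a Pax5 driven CD19 promoter luciferase reporter; potency of inhibitors that lower reporter luminescence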
[13] = cytotoxicity in OV-90 ovarian cancer cells, dose response, PAX8 inhibitor project, cell-based, plate reader, dry powder, SA8 (AID 743149); type: functional
[14] = cytotoxicity in OVCAR4 cells, dose response, cytotoxicity control for PAX8 inhibitor project, cell-based, plate reader, dry powder, SA11 (AID 743150); type: functional; conditions: OVCAR-4
[15] = cytotoxicity dependent on PAX8, dose response, cell-based, plate reader, dry powder (AID 743049); type: functional
[16] = NIH:OVCAR-3 ovarian cancer cell cytotoxicity, dose response, PAX8 inhibitor project, plate reader, dry powder samples (AID 743044); type: functional, cell-based
[17] = luciferase reporter signal reduction – luminescence, H4-C neuroglioblastoma cells, dose response (AID 2458); type: functional, cell-based;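 also: H4 neuroglioblastoma cells stably carrying a luciferase reporter gene fusion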
[18] = cells; type: functional, cell-based; remark: listed apart in the source
[19] = molecular target: T1, Nuclear receptor subfamily 0 group B member 1 (Homo sapiens, UniProt P51843); type: functional, cell-based;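 also: HEK293T cells transfected with SF-1 and DAX-1 plus StAR promoter luciferase reporter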
T1 sequence (P51843 whole entry): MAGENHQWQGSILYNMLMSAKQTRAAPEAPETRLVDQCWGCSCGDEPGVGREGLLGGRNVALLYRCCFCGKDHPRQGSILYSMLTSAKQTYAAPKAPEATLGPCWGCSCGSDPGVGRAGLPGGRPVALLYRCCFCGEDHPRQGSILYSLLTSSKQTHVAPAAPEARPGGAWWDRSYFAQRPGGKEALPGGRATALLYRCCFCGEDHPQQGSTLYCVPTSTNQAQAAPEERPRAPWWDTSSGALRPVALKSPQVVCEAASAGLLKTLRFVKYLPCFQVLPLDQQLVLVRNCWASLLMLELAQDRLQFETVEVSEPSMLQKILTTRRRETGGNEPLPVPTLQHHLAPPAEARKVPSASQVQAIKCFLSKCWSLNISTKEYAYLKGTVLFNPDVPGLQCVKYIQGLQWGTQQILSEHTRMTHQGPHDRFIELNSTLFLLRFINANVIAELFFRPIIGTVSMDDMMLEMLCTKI

[20] = A2780 ovarian cancer cell cytotoxicity, dose response, cytotoxicity control, plate reader, dry powder samples (AID 743046); type: functional, cell-based
[21] = IOSE-T80 ovarian epithelial cell cytotoxicity, dose response, cytotoxicity control for PAX8 inhibitor project, plate reader, dry powder samples (AID 743045); type: functional, cell-based
[22] = Mtb BioA inhibitors by displacement, dose response, biochemical, coupled fluorescence displacement, 20-point, dry powder (AID 743357); type: functional

Chain of Paired box protein Pax-8 (Q06710 whole entry): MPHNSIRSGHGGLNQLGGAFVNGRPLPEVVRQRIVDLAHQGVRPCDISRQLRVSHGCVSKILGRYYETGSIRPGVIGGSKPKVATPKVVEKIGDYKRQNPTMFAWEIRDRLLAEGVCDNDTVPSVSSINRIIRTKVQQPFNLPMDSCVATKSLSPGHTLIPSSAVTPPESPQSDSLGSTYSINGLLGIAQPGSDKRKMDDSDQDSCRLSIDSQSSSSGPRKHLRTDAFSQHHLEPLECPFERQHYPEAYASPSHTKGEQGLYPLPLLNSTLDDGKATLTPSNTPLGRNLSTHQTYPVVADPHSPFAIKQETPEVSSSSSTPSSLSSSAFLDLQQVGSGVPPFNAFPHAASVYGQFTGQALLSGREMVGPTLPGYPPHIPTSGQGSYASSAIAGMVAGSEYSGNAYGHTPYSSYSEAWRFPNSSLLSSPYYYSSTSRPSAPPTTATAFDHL

With `C=CCn1c(=O)c2c(nc3n2CC(C)CN3Cc2ccccc2)n(C)c1=O` (configuration not stated) the EC50 [1] was > 167 µM (inactive).

With `CN[C@H]1CCc2cc(OC)c(OC)c(OC)c2-c2ccc(OC)c(=O)cc21` [DEMECOLCINE] the EC50 [2] was 80 nM (active), the AC50 [3] was 6.35 µM (active) and the AC50 [4] was 96.6 nM (active). The AC50 [5] was 61.5 nM (active), the IC50 [6] was > 80 µM (inactive) and the AC50 [7] was < 260 nM (active). The EC50 [8] was < 100 nM (active), the AC50 [9] was 217 nM (active) and the EC50 [10] was < 100 nM (active). For the same molecule, the EC50 [11] was 85 nM (active), the AC50 [12] was > 100 µM (inactive) and the AC50 [13] was 48.8 nM (active). The AC50 [14] was 113 nM (active), the AC50 [15] was 96.7 nM (active) and the AC50 [16] was 318 nM (active). For the same molecule, the EC50 [17] was 78 nM (active), the IC50 [18] was > 67.6 µM (inactive) and the IC50 [19] was > 834 nM (active). The AC50 [20] was 234 nM (active) and the AC50 [21] was 113 nM (active).

In the case of `O=C(c1ccc2c(c1)OCO2)N1CCN(c2ccc(S(=O)(=O)C(F)F)cc2)CC1`, the AC50 [22] was 16.7 µM (active).
